The IC50 is the point on the concentration scale where inhibition reaches its midpoint.

Experiment [1] relates to adenosine uptake into HeLa cells. Description: [3H]Adenosine uptake assay in HeLa cells. The conditions noted are these: compound range 10 μM to 0.032 nM. In kind it is cell-based. The essentials: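 HeLa cells in HBSS + 5% FBS were preincubated 30 min at ambient temperature with compound (ten-point 1:3 series, 10 µM–[…] final), then given [3H]adenosine (added as a 500 nM solution) for 60 min. Cell-associated label was read by scintillating-plate proximity counting; IC50 from 4-parameter fit of cps versus log concentration.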

In experiment [2] the target is BTK enzyme (recombinant full-length BTK, hBTK) (Homo sapiens (Human), UniProt Q06187). Kind of experiment: BTK enzymatic activity LANCE TR-FRET assay. In kind it is biochemical. The conditions noted are these: 50 pM hBTK, 25 μM ATP, 2 μM biotin-A5-peptide; compound range 1 μM to 0.017 nM; read-out: BTK binding IC50. On the technique in general: TR-FRET usually uses a lanthanide donor and a delayed reading to cut background.
BTK enzyme (recombinant full-length BTK, hBTK), sequence (Q06187 whole entry): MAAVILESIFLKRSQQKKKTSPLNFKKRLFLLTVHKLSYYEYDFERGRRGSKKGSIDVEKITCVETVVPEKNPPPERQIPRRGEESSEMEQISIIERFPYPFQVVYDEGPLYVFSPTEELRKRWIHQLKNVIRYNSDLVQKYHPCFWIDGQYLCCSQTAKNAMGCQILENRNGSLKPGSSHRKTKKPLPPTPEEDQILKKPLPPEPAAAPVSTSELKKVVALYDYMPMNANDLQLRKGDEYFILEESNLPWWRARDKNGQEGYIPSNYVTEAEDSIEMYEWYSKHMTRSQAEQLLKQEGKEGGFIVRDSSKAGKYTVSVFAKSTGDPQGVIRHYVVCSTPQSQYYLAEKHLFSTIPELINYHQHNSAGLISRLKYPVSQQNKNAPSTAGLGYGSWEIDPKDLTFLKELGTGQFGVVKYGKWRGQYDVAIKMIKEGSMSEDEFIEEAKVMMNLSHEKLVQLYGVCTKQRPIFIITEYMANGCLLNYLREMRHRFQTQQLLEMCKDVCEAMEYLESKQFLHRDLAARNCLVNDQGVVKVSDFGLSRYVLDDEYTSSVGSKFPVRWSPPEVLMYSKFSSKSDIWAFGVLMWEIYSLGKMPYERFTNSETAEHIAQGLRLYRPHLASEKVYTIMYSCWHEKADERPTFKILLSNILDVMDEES

[3] abbreviates: Homo sapiens, HeLa, [3H]adenosine accumulation in HeLa cells, read-out: ADU inhibition IC50.
Setting [4] is: Homo sapiens, HeLa, read-out: ADU inhibition IC50 (nM), [3H]adenosine accumulation in HeLa cells.
Setting [5] is: [3H]adenosine accumulation in HeLa cells, read-out: ADU inhibition IC50.

Like-named read-outs stand apart in the source and are kept apart here.

As to `C[C@](O)(c1ccc(-c2nc([C@@H]3CC[C@H]4CCC(=O)N4C3)n3c(Cl)cnc(N)c23)cc1)c1cccc(C(F)F)c1` [Example 133, (6R,8aS)-6-[8-amino-5-chloro-1-(4-{(1S)-1-[3-(difluoromethyl)phenyl]-1-hydroxyethyl}phenyl)imidazo[1,5-a]pyrazin-3-yl]hexahydroindolizin-3(2H)-one], the IC50 amounted to 460 nM in experiment [1] (setting [3]) and 118 nM in experiment [2].
For `C[C@@](O)(c1ccc(-c2nc([C@@H]3CC[C@H]4CCC(=O)N4C3)n3c(Cl)cnc(N)c23)cc1)c1cccc(C(F)F)c1` [Example 134, (6R,8aS)-6-[8-amino-5-chloro-1-(4-{(1R)-1-[3-(difluoromethyl)phenyl]-1-hydroxyethyl}phenyl)imidazo[1,5-a]|pyrazin-3-yl]hexahydroindolizin-3(2H)-one], in that order: 2330 nM and 0.14 nM.
The matching figures for `C[C@](O)(c1ccc(-c2nc([C@@H]3CC[C@H]4CCC(=O)N4C3)n3ccnc(N)c23)cc1)c1cncc(C(F)(F)F)c1` [Example 135, (6R,8aS)-6-[8-amino-1-(4-{(1S)-1-hydroxy-1-[5-(trifluoromethyl)pyridin-3-yl]ethyl}phenyl)imidazo [1,5-a]pyrazin-3-yl]hexahydroindolizin-3(2H)-one]: 973 nM and 1000 nM.
In the case of `C[C@@](O)(c1ccc(-c2nc([C@@H]3CC[C@H]4CCC(=O)N4C3)n3ccnc(N)c23)cc1)c1cncc(C(F)(F)F)c1` [Example 136, (6R,8aS)-6-[8-amino-1-(4-{(1R)-1-hydroxy-1-[5-(trifluoromethyl)pyridin-3-yl]ethyl}phenyl)imidazo [1,5-a]pyrazin-3-yl]hexahydroindolizin-3(2H)-one], the IC50 in experiment [1] (setting [3]) worked out at 4620 nM; in experiment [2], 87.6 nM.
On to `C[C@](O)(c1ccc(-c2nc([C@@H]3CC[C@H]4CCC(=O)N4C3)n3ccnc(N)c23)cc1)c1cccc(C(F)(F)F)n1` [Example 137, (6R,8aS)-6-[8-amino-1-(4-{(1S)-1-hydroxy-1-[6-(trifluoromethyl)pyridin-2-yl]ethyl}phenyl)imidazo [1,5-a]pyrazin-3-yl]hexahydroindolizin-3(2H)-one], for which the IC50 in experiment [1] (setting [3]) came out at 865 nM; in experiment [2], 876 nM.
The matching figures for `C[C@@](O)(c1ccc(-c2nc([C@@H]3CC[C@H]4CCC(=O)N4C3)n3ccnc(N)c23)cc1)c1cccc(C(F)(F)F)n1` [Example 138, (6R,8aS)-6-[8-amino-1-(4-{(1R)-1-hydroxy-1-[6-(trifluoromethyl)pyridin-2-yl]ethyl}phenyl)imidazo [1,5-a]pyrazin-3-yl]hexahydroindolizin-3(2H)-one]: 4760 nM and 25 nM.
`CC(F)(F)c1cccc([C@@](C)(O)c2ccc(-c3nc([C@@H]4CC[C@H]5CCC(=O)N5C4)n4c(Cl)cnc(N)c34)cc2)c1` [Example 139, (6R,8aS)-6-[8-amino-5-chloro-1-(4-{(1S)-1-[3-(1,1-difluoroethyl)phenyl]-1-hydroxyethyl}phenyl)imidazo[1,5-a]pyrazin-3-yl]hexahydroindolizin-3(2H)-one]: the 50% inhibitory concentration (IC50) in experiment [1] (setting [4]) is 449 nM; in experiment [2], 24.9 nM.
The matching figures for `CC(F)(F)c1cccc([C@](C)(O)c2ccc(-c3nc([C@@H]4CC[C@H]5CCC(=O)N5C4)n4c(Cl)cnc(N)c34)cc2)c1` [Example 140]: 1200 nM and 0.22 nM.
Turning to `COc1cc([C@@](C)(O)c2cccc(C(F)(F)F)c2)ccc1-c1nc([C@@H]2CC[C@H]3CCC(=O)N3C2)n2ccnc(N)c12` [Example 141, (6R,8aS)-6-[8-amino-1-(4-{(1S)-1-hydroxy-1-[3-(trifluoromethyl)phenyl]ethyl}-2-methoxyphenyl)imidazo [1,5-a]pyrazin-3-yl]hexahydroindolizin-3(2H)-one], the IC50 came to 1980 nM in experiment [1] (setting [3]) and 93.8 nM in experiment [2].
Regarding `COc1cc([C@](C)(O)c2cccc(C(F)(F)F)c2)ccc1-c1nc([C@@H]2CC[C@H]3CCC(=O)N3C2)n2ccnc(N)c12` [Example 142, (6R,8aS)-6-[8-amino-1-(4-{(1R)-1-hydroxy-1-[3-(trifluoromethyl)phenyl]ethyl}-2-methoxyphenyl)imidazo [1,5-a]pyrazin-3-yl]hexahydroindolizin-3(2H)-one], the IC50 was 7160 nM in experiment [1] (setting [3]) and 2 nM in experiment [2].
As to `CC(O)(c1ccc(-c2nc([C@@H]3CC[C@H]4CCC(=O)N4C3)n3ccnc(N)c23)cc1)C1CC2CCC1CC2` (stereo partly drawn) [Example 143, (6R,8aS)-6-{8-amino-1-[4-(1-bicyclo[2.2.2]oct-2-yl-1-hydroxyethyl)phenyl]imidazo[1,5-a]pyrazin-3-yl}hexahydroindolizin-3(2H)-one], the figures for the IC50 in experiment [1] (setting [5]) and in experiment [2] were 839 nM and 900 nM, respectively.
For `CC(O)(c1ccc(-c2nc([C@@H]3CC[C@H]4CCC(=O)N4C3)n3ccnc(N)c23)cc1)c1cccc(OC(F)F)c1` (stereo partly drawn) [Example 144, (6R,8aS)-6-[8-amino-1-(4-{1-[3-(difluoromethoxy)phenyl]-1-hydroxyethyl}phenyl)imidazo[1,5-a]pyrazin-3-yl]hexahydroindolizin-3(2H)-one], in that order: 985 nM and 67.6 nM.
Take `CC(O)(c1ccc(-c2nc([C@@H]3CC[C@H]4CCC(=O)N4C3)n3ccnc(N)c23)cc1)c1cc(C(F)(F)F)ccc1F` (stereo partly drawn) [Example 145, (6R,8aS)-6-[8-amino-1-(4-{1-[2-fluoro-5-(trifluoromethyl)phenyl]-1-hydroxyethyl}phenyl)imidazo[1,5-a]pyrazin-3-yl]hexahydroindolizin-3(2H)-one]: the IC50 in experiment [1] (setting [3]) came out at 1220 nM; in experiment [2], 1000 nM.
The matching figures for `CC(O)(c1ccc(-c2nc([C@@H]3CC[C@H]4CCC(=O)N4C3)n3ccnc(N)c23)cc1)c1cc(C(F)(F)F)cc(C(F)(F)F)c1` (stereo partly drawn) [Example 146, (6R,8aS)-6-[8-amino-1-(4-{1-[3,5-bis(trifluoromethyl)phenyl]-1-hydroxyethyl}phenyl)imidazo[1,5-a]pyrazin-3-yl]hexahydroindolizin-3(2H)-one]: 1490 nM and 752 nM.
Regarding `CC(O)(c1ccc(-c2nc([C@@H]3CC[C@H]4CCC(=O)N4C3)n3ccnc(N)c23)cc1)C1CC2CCC1CC2` (stereo partly drawn) [Example 147, (6R,8aS)-6-{8-amino-1-[4-(1-bicyclo[2.2.2]oct-2-yl-1-hydroxyethyl)phenyl]imidazo[1,5-a]pyrazin-3-yl}hexahydroindolizin-3(2H)-one], the IC50 is 3830 nM in experiment [1] (setting [5]) and 26.2 nM in experiment [2].
For `CC(O)(c1ccc(-c2nc([C@@H]3CC[C@H]4CCC(=O)N4C3)n3ccnc(N)c23)cc1)c1cccc(OC(F)F)c1` (stereo partly drawn) [Example 148, (6R,8aS)-6-[8-amino-1-(4-{1-[3-(difluoromethoxy)phenyl]-1-hydroxyethyl}phenyl)imidazo[1,5-a]pyrazin-3-yl]hexahydroindolizin-3(2H)-one], in that order: 2990 nM and 0.2 nM.
With `CC(O)(c1ccc(-c2nc([C@@H]3CC[C@H]4CCC(=O)N4C3)n3ccnc(N)c23)cc1)C1CC2CCC1CC2` (stereo partly drawn) [Example 149, (6R,8aS)-6-{8-amino-1-[4-(1-bicyclo[2.2.2]oct-2-yl-1-hydroxyethyl)phenyl]imidazo[1,5-a]pyrazin-3-yl}hexahydroindolizin-3(2H)-one], the IC50 in experiment [1] (setting [5]) is 701 nM; in experiment [2], 888 nM.
